Source: patent publication US9730944B2, “Antiviral activity of novel bicyclic heterocycles” (priority 2010, dated 2017)
Values after ≈ are worked out from the molar mass of the structure shown.

Experiments:
hRV-2 = assay: Rhinovirus type 2 antiviral assay in Hela Rh cells, MTS readout; format: cell-based, Human rhinovirus; conditions: Rhinovirus A, HRV2, HeLa Rh, Hela Rh cells; read-out: hRV-2 EC50
hRV-9 = assay: Rhinovirus type 9 antiviral assay in Hela Rh cells, MTS readout; format: cell-based, Human rhinovirus; conditions: Human rhinovirus sp., HRV9, HeLa Rh, Hela Rh cells; read-out: hRV-9 EC50
hRV-14 = assay: Rhinovirus type 14 antiviral assay in Hela Rh cells, MTS readout; format: cell-based, Human rhinovirus; conditions: Rhinovirus B, HRV14, HeLa Rh, Hela Rh cells; read-out: hRV-14 EC50
hRV-15 = assay: Rhinovirus type 15 antiviral assay in Hela Rh cells, MTS readout; format: cell-based, Human rhinovirus; conditions: Human rhinovirus sp., HRV15, HeLa Rh, Hela Rh cells; read-out: hRV-15 EC50
hRV-29 = assay: Rhinovirus type 29 antiviral assay in Hela Rh cells, MTS readout; format: cell-based; conditions: Human rhinovirus sp., HRV29, HeLa Rh, Hela Rh cells; read-out: hRV-29 EC50
hRV-39 = assay: Rhinovirus type 39 antiviral assay in Hela Rh cells, MTS readout; format: cell-based, Human rhinovirus; conditions: Human rhinovirus sp., HRV39, HeLa Rh, Hela Rh cells; read-out: hRV-39 EC50
hRV-41 = assay: Rhinovirus type 41 antiviral assay in Hela Rh cells, MTS readout; format: cell-based, Human rhinovirus; conditions: Human rhinovirus sp., HRV41, HeLa Rh, Hela Rh cells; read-out: hRV-41 EC50
hRV-42 = assay: Rhinovirus type 42 antiviral assay in Hela Rh cells, MTS readout; format: cell-based, Human rhinovirus; conditions: Human rhinovirus sp., HRV42, HeLa Rh, Hela Rh cells; read-out: hRV-42 EC50
hRV-45 = assay: Rhinovirus type 45 antiviral assay in Hela Rh cells, MTS readout; format: cell-based, Human rhinovirus; conditions: Human rhinovirus sp., HRV45, HeLa Rh, Hela Rh cells; read-out: hRV-45 EC50
hRV-63 = assay: Rhinovirus type 63 antiviral assay in Hela Rh cells, MTS readout; format: cell-based, Human rhinovirus; conditions: Human rhinovirus sp., HRV63, HeLa Rh, Hela Rh cells; read-out: hRV-63 EC50
hRV-70 = assay: Rhinovirus type 70 antiviral assay in Hela Rh cells, MTS readout; format: cell-based, Human rhinovirus; conditions: Human rhinovirus sp., HRV70, HeLa Rh, Hela Rh cells; read-out: hRV-70 EC50
hRV-72 = assay: Rhinovirus type 72 antiviral assay in Hela Rh cells, MTS readout; format: cell-based, Human rhinovirus; conditions: Human rhinovirus sp., HRV72, HeLa Rh, Hela Rh cells; read-out: hRV-72 EC50
hRV-85 = assay: Rhinovirus type 85 antiviral assay in Hela Rh cells, MTS readout; format: cell-based, Human rhinovirus; conditions: Human rhinovirus sp., HRV85, HeLa Rh, Hela Rh cells; read-out: hRV-85 EC50
hRV-86 = assay: Rhinovirus type 86 antiviral assay in Hela Rh cells, MTS readout; format: cell-based, Human rhinovirus; conditions: Human rhinovirus sp., HRV86, HeLa Rh, Hela Rh cells; read-out: hRV-86 EC50
[1] = Cytostatic/cytotoxic effect in Hela Rh cells (rhinovirus methodology, MTS); conditions: human, CC50, Hela Rh cells

| SMILES | EC50 (hRV-2) | EC50 (hRV-9) | EC50 (hRV-14) | EC50 (hRV-15) | EC50 (hRV-29) | EC50 (hRV-39) | EC50 (hRV-41) | EC50 (hRV-42) | EC50 (hRV-45) | EC50 (hRV-63) | EC50 (hRV-70) | EC50 (hRV-72) | EC50 (hRV-85) | EC50 (hRV-86) | CC50 [1] |
| --- | --- | --- | --- | --- | --- | --- | --- | --- | --- | --- | --- | --- | --- | --- | --- |
| Nc1nc(N2CCN(C(=O)COc3ccc(F)cc3)CC2)c2nc(-c3ccc(F)cc3)sc2n1 [Example 233, 1-(4-(5-amino-2-(4-fluorophenyl)thiazolo[5,4-d]pyrimidin-7-yl)piperazin-1-yl)-2-(4-fluorophenoxy)ethanone] | < 0.02 µg/mL | < 0.02 µg/mL | < 0.02 µg/mL | < 0.02 µg/mL | < 0.02 µg/mL | < 0.02 µg/mL | < 0.39 µg/mL | < 0.39 µg/mL | < 0.39 µg/mL | < 0.39 µg/mL | < 0.39 µg/mL | 0.88 µg/mL (≈ 1.82 µM) | < 0.39 µg/mL | < 0.39 µg/mL | > 50 µg/mL |
| CC(=O)c1ccc(OCC(=O)N2CCN(c3nc(N)nc4sc(CCc5ccc(F)cc5)nc34)CC2)cc1 [Example 227, 2-(4-acetylphenoxy)-1-(4-(5-amino-2-(4-fluorophenethyl)thiazolo[5,4-d]pyrimidin-7-yl)piperazin-1-yl)ethanone] | 0.26 µg/mL (≈ 0.486 µM) | 0.56 µg/mL (≈ 1.05 µM) | > 50 µg/mL | > 50 µg/mL | 4.8 µg/mL (≈ 8.98 µM) | 0.3 µg/mL (≈ 0.561 µM) | > 50 µg/mL | > 50 µg/mL | 35.4 µg/mL (≈ 66.1 µM) | 30.6 µg/mL (≈ 57.2 µM) | > 50 µg/mL | > 50 µg/mL | 2.19 µg/mL (≈ 4.1 µM) | 4.59 µg/mL (≈ 8.59 µM) | > 50 µg/mL |
| COc1cccc(CCc2nc3c(N4CCN(C(=O)COc5ccc(Br)cc5)CC4)nc(N)nc3s2)c1 [Example 254, 1-(4-(5-amino-2-(3-methoxyphenethyl)thiazolo[5,4-d]pyrimidin-7-yl)piperazin-1-yl)-2-(4-bromophenoxy)ethanone] | 1.3 µg/mL (≈ 2.23 µM) | 1.26 µg/mL (≈ 2.16 µM) | 1.23 µg/mL (≈ 2.11 µM) | 3.44 µg/mL (≈ 5.9 µM) | 1.27 µg/mL (≈ 2.18 µM) | 1.18 µg/mL (≈ 2.02 µM) | 13 µg/mL (≈ 22.3 µM) | 2.41 µg/mL (≈ 4.13 µM) | 4.87 µg/mL (≈ 8.35 µM) | 5.85 µg/mL (≈ 10 µM) | 4.77 µg/mL (≈ 8.17 µM) | 9.05 µg/mL (≈ 15.5 µM) | 3.99 µg/mL (≈ 6.84 µM) | 4.62 µg/mL (≈ 7.92 µM) | > 50 µg/mL |
| Nc1nc(N2CCN(C(=O)COc3cccc([N+](=O)[O-])c3)CC2)c2nc(CCc3ccc(F)cc3)sc2n1 [Example 131, 5-amino-2-[2-(4-fluorophenyl)ethyl]-7-(4-[2-(3-nitrophenoxy)acetyl]piperazin-1-yl)-thiazolo[5,4-d]pyrimidine] | 2.5 µg/mL (≈ 4.65 µM) | 2.11 µg/mL (≈ 3.93 µM) | > 50 µg/mL | > 50 µg/mL | > 50 µg/mL | 1.52 µg/mL (≈ 2.83 µM) | > 50 µg/mL | 12.3 µg/mL (≈ 22.8 µM) | 9.05 µg/mL (≈ 16.8 µM) | 34.5 µg/mL (≈ 64.3 µM) | 15.3 µg/mL (≈ 28.4 µM) | 37.7 µg/mL (≈ 70.2 µM) | 7.26 µg/mL (≈ 13.5 µM) | 7.07 µg/mL (≈ 13.2 µM) | > 50 µg/mL |
| Nc1nc(N2CCN(C(=O)COc3ccc(OC(F)(F)F)cc3)CC2)c2nc(CCc3ccc(F)cc3)sc2n1 [Example 226, 1-(4-(5-amino-2-(4-fluorophenethyl)thiazolo[5,4-d]pyrimidin-7-yl)piperazin-1-yl)-2-(4-(trifluoromethoxy)phenoxy)ethanone] | > 50 µg/mL | > 50 µg/mL | > 50 µg/mL | > 50 µg/mL | > 50 µg/mL | > 50 µg/mL | > 50 µg/mL | > 50 µg/mL | > 50 µg/mL | > 50 µg/mL | > 50 µg/mL | > 50 µg/mL | 29.9 µg/mL (≈ 51.9 µM) | > 50 µg/mL | > 50 µg/mL |
| CCCCCc1nc2c(N3CCN(C(=O)COc4ccc(OC)cc4)CC3)nc(N)nc2s1 [Example 296, 1-(4-(5-amino-2-pentylthiazolo[5,4-d]pyrimidin-7-yl)piperazin-1-yl)-2-(4-methoxyphenoxy)ethanone] | 0.19 µg/mL (≈ 0.404 µM) | 0.2 µg/mL (≈ 0.425 µM) | 9.93 µg/mL (≈ 21.1 µM) | 0.44 µg/mL (≈ 0.935 µM) | 0.09 µg/mL (≈ 0.191 µM) | 0.04 µg/mL (≈ 0.085 µM) | 7.02 µg/mL (≈ 14.9 µM) | 4.25 µg/mL (≈ 9.03 µM) | 4.13 µg/mL (≈ 8.78 µM) | 0.71 µg/mL (≈ 1.51 µM) | 2.53 µg/mL (≈ 5.38 µM) | 26.5 µg/mL (≈ 56.3 µM) | 0.64 µg/mL (≈ 1.36 µM) | 17.8 µg/mL (≈ 37.7 µM) | > 50 µg/mL |
| CC(C)(C)OC(=O)N[C@@H]1CCN(c2nc(N)nc3sc(-c4ccc(F)cc4)cc23)C1 [Example 338, (R)-tert-butyl 1-(2-amino-6-(4-fluorophenyl)thieno[2,3-d]pyrimidin-4-yl)pyrrolidin-3-ylcarbamate] | 0.37 µg/mL (≈ 0.861 µM) | 0.78 µg/mL (≈ 1.82 µM) | 1.11 µg/mL (≈ 2.58 µM) | 1.52 µg/mL (≈ 3.54 µM) | 0.39 µg/mL (≈ 0.908 µM) | 0.38 µg/mL (≈ 0.885 µM) | 27.4 µg/mL (≈ 63.7 µM) | 5.65 µg/mL (≈ 13.2 µM) | 4.23 µg/mL (≈ 9.85 µM) | 8.43 µg/mL (≈ 19.6 µM) | 3.65 µg/mL (≈ 8.5 µM) | 4.96 µg/mL (≈ 11.5 µM) | 2.17 µg/mL (≈ 5.05 µM) | 2.37 µg/mL (≈ 5.52 µM) | > 50 µg/mL |
| Nc1nc(N2CCN(C(=O)COc3ccc(Cl)cc3)CC2)c2nc(CCCc3ccc(F)cc3)sc2n1 [Example 290, 1-(4-(5-amino-2-(3-(4-fluorophenyl)propyl)thiazolo[5,4-d]pyrimidin-7-yl)piperazin-1-yl)-2-(4-chlorophenoxy)ethanone] | 49.2 µg/mL (≈ 91 µM) | > 50 µg/mL | > 50 µg/mL | > 50 µg/mL | > 50 µg/mL | > 50 µg/mL | > 50 µg/mL | > 50 µg/mL | > 50 µg/mL | > 50 µg/mL | > 50 µg/mL | > 50 µg/mL | 19.4 µg/mL (≈ 35.8 µM) | > 50 µg/mL | > 50 µg/mL |
| Nc1nc(N2CCN(C(=O)COc3ccc(Cl)cc3)CC2)c2nc(CCCCc3ccc(F)cc3)sc2n1 [Example 292, 1-(4-(5-amino-2-(4-(4-fluorophenyl)butyl)thiazolo[5,4-d]pyrimidin-7-yl)piperazin-1-yl)-2-(4-chlorophenoxy)ethanone] | 13.6 µg/mL (≈ 24.6 µM) | > 50 µg/mL | > 50 µg/mL | > 50 µg/mL | > 50 µg/mL | 39.4 µg/mL (≈ 70.9 µM) | > 50 µg/mL | > 50 µg/mL | > 50 µg/mL | > 50 µg/mL | > 50 µg/mL | > 50 µg/mL | 10.3 µg/mL (≈ 18.6 µM) | > 50 µg/mL | > 50 µg/mL |
| Nc1nc(N2CCN(C(=O)COc3ccc(O)cc3)CC2)c2nc(CCc3ccc(F)cc3)sc2n1 [Example 224, 1-(4-(5-amino-2-(4-fluorophenethyl)thiazolo[5,4-d]pyrimidin-7-yl)piperazin-1-yl)-2-(4-hydroxyphenoxy)ethanone] | 0.66 µg/mL (≈ 1.3 µM) | 0.89 µg/mL (≈ 1.75 µM) | 3.44 µg/mL (≈ 6.76 µM) | 2.32 µg/mL (≈ 4.56 µM) | 0.49 µg/mL (≈ 0.963 µM) | 0.32 µg/mL (≈ 0.629 µM) | 2.26 µg/mL (≈ 4.44 µM) | > 50 µg/mL | 4.55 µg/mL (≈ 8.95 µM) | 25.4 µg/mL (≈ 49.8 µM) | 8.62 µg/mL (≈ 16.9 µM) | > 50 µg/mL | 2.09 µg/mL (≈ 4.11 µM) | 20 µg/mL (≈ 39.4 µM) | > 50 µg/mL |
| COc1ccc(OCC(=O)N2CCN(c3nc(N)nc4sc(CCc5ccc(OC)c(OC)c5)nc34)CC2)cc1 [Example 257, 1-(4-(5-amino-2-(3,4-dimethoxyphenethyl)thiazolo[5,4-d]pyrimidin-7-yl)piperazin-1-yl)-2-(4-methoxyphenoxy)ethanone] | 3.01 µg/mL (≈ 5.33 µM) | 3.69 µg/mL (≈ 6.53 µM) | 2.32 µg/mL (≈ 4.11 µM) | 46.2 µg/mL (≈ 81.9 µM) | 14.9 µg/mL (≈ 26.3 µM) | 2.26 µg/mL (≈ 4 µM) | 31.1 µg/mL (≈ 55.1 µM) | 5.09 µg/mL (≈ 9.01 µM) | 30.8 µg/mL (≈ 54.6 µM) | 26.4 µg/mL (≈ 46.8 µM) | 7.1 µg/mL (≈ 12.6 µM) | 5.95 µg/mL (≈ 10.5 µM) | 8.05 µg/mL (≈ 14.3 µM) | 4.79 µg/mL (≈ 8.48 µM) | > 50 µg/mL |
